Measured values taken from patent US8614327B2 (Vertex Pharmaceuticals Incorporated, priority 2004, dated 2013).

Biological target: T1, ΔF508-CFTR (Homo sapiens, UniProt P13569, DEL508-508)
T1 construct: expressed in transfected cells
Test: Membrane potential optical (FRET/VIPR) assay, identification of potentiator compounds
Assay type: cell-based
Details: Table 3, assay not given; for % Activity: relative efficacy
Summary of the method: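 NIH3T3 mouse fibroblasts stably expressing ΔF508-CFTR, temperature-corrected 24 h at 27° C., read on VIPR by FRET between CC2-DMPE and DiSBAC2(3). Potentiators identified in a double-addition format, first adding chloride-free (gluconate) medium with or without compound.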

T1 sequence (P13569 with tags, fused parts or gaps DEL508-508): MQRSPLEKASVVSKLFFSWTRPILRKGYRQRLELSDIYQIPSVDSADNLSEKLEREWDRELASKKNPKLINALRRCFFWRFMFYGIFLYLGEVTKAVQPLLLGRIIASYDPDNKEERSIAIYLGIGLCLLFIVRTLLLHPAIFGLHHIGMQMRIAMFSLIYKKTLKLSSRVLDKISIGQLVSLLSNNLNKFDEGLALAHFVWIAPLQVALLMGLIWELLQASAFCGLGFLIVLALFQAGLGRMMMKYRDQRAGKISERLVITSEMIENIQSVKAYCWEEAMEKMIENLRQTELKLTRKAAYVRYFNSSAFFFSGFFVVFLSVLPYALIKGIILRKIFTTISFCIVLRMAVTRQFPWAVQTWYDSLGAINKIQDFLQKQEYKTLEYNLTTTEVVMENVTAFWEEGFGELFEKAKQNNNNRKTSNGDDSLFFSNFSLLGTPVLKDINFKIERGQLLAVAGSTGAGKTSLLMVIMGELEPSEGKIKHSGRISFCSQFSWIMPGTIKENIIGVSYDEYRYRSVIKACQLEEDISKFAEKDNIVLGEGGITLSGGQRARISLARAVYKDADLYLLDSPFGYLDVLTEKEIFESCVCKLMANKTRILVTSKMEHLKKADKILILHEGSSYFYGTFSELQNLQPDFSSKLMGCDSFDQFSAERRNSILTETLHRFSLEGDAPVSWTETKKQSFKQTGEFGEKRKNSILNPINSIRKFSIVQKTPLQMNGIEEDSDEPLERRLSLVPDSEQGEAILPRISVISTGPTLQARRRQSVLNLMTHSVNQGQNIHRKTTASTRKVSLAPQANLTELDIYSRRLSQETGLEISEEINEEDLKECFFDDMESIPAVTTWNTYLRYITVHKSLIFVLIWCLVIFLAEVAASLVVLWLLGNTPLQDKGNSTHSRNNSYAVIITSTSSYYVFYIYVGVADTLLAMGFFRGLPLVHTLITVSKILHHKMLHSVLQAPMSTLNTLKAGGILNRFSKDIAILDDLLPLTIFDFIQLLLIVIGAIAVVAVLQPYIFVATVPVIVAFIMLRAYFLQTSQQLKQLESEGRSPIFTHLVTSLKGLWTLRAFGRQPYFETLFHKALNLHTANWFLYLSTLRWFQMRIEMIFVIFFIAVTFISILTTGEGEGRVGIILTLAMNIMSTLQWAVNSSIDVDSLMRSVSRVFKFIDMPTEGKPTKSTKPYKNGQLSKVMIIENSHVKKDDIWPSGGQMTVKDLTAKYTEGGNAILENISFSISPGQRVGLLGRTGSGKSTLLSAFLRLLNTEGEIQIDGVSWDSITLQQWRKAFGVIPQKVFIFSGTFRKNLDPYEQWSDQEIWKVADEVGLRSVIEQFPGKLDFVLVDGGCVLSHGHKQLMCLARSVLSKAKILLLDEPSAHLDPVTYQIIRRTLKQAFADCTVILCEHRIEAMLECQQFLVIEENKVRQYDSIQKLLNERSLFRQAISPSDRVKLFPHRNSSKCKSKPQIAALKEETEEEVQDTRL

EC50 [µM] | % Activity | SMILES
< 10 | ++ (between 25% to 100%) | O=C(Nc1ccc(N2CCN(CCO)CC2)cc1C(F)(F)F)c1c[nH]c2ccccc2c1=O [Compound 673, N-[4-[4-(2-hydroxyethyl)piperazin-1-yl]-2-(trifluoromethyl)phenyl]-4-oxo-1H-quinoline-3-carboxamide]
10 to 25 | ++ (between 25% to 100%) | CC(C)n1cc(C(=O)Nc2ccccc2C(C)(C)C)c(=O)c2ccccc21 [Compound 473, 1-isopropyl-4-oxo-N-(2-tert-butylphenyl)-1H-quinoline-3-carboxamide]
< 10 | ++ (between 25% to 100%) | O=C(Nc1ccc(C(O)(C(F)(F)F)C(F)(F)F)cc1)c1c[nH]c2ccccc2c1=O [Compound 150, 4-oxo-N-[4-[2,2,2-trifluoro-1-hydroxy-1-(trifluoromethyl)ethyl]phenyl]-1H-quinoline-3-carboxamide]
25 to 60 | + (<25%) | NS(=O)(=O)c1ccc(NC(=O)c2c[nH]c3ccccc3c2=O)cc1 [Compound 165, 4-oxo-N-(4-sulfamoylphenyl)-1H-quinoline-3-carboxamide]
< 10 | ++ (between 25% to 100%) | O=C(Nc1ccccc1)c1c[nH]c2cc(Cl)ccc2c1=O [Compound 411, 7-chloro-4-oxo-N-phenyl-1H-quinoline-3-carboxamide]
< 10 | ++ (between 25% to 100%) | COc1ccc2[nH]cc(C(=O)Nc3ccc(N4CCC[C@@H]4C)cc3C(F)(F)F)c(=O)c2c1 [Compound 601, (S)-6-methoxy-N-(4-(2-methylpyrrolidin-1-yl)-2-(trifluoromethyl)phenyl)-4-oxo-1,4-dihydroquinoline-3-carboxamide]
< 10 | ++ (between 25% to 100%) | CC(C)(C)c1cc(C(C)(C)C)c(NC(=O)c2c[nH]c3ccc(Br)cc3c2=O)cc1O [Compound 553, 6-bromo-N-(5-hydroxy-2,4-ditert-butyl-phenyl)-4-oxo-1H-quinoline-3-carboxamide]
< 10 | ++ (between 25% to 100%) | CC(=O)n1ccc2ccc(NC(=O)c3c[nH]c4ccccc4c3=O)cc21 [Compound 187, N-(1-acetyl-1H-indol-6-yl)-4-oxo-1H-quinoline-3-carboxamide]
10 to 25 | ++ (between 25% to 100%) | O=C(Nc1cccc2cccnc12)c1c[nH]c2ccccc2c1=O [Compound 241, 4-oxo-N-(8-quinolyl)-1H-quinoline-3-carboxamide]
< 10 | ++ (between 25% to 100%) | CCCCc1ccccc1NC(=O)c1c[nH]c2ccccc2c1=O [Compound 336, N-(2-butylphenyl)-4-oxo-1H-quinoline-3-carboxamide]
10 to 25 | ++ (between 25% to 100%) | Cc1ccccc1-c1nc2cc(NC(=O)c3c[nH]c4ccccc4c3=O)ccc2o1 [Compound 329, N-[2-(o-tolyl)benzooxazol-5-yl]-4-oxo-1H-quinoline-3-carboxamide]
< 10 |  | CC(C)(C)c1cc(C(C)(C)C)c(NC(=O)c2c[nH]c3ccccc3c2=O)cc1O [Compound 433, N-(5-hydroxy-2,4-ditert-butyl-phenyl)-4-oxo-1H-quinoline-3-carboxamide]
< 10 | ++ (between 25% to 100%) | O=C(Nc1ccccc1-c1ccc(F)c(F)c1)c1c[nH]c2ccccc2c1=O [Compound 76, N-[2-(3,4-difluorophenyl)phenyl]-4-oxo-1H-quinoline-3-carboxamide]
< 10 | ++ (between 25% to 100%) | COc1cccc(OC)c1-c1ccccc1NC(=O)c1c[nH]c2ccccc2c1=O [Compound 49, N-[2-(2,6-dimethoxyphenyl)phenyl]-4-oxo-1H-quinoline-3-carboxamide]
< 10 | ++ (between 25% to 100%) | COCCn1ccc2cc(C(F)(F)F)c(NC(=O)c3c[nH]c4ccc(F)cc4c3=O)cc21 [Compound 566, 6-fluoro-N-[1-(2-methoxyethyl)-5-(trifluoromethyl)indol-6-yl]-4-oxo-1H-quinoline-3-carboxamide]
< 10 | ++ (between 25% to 100%) | O=C(Nc1cc2[nH]ccc2cc1-c1ccccc1)c1c[nH]c2ccccc2c1=O [Compound 158, 4-Oxo-N-(5-phenyl-1H-indol-6-yl)-1H-quinoline-3-carboxamide]
25 to 60 | + (<25%) | O=C(Nc1ccc2[nH]c(=O)[nH]c2c1)c1c[nH]c2ccccc2c1=O [Compound 64, 4-oxo-N-(2-oxo-1,3-dihydrobenzoimidazol-5-yl)-1H-quinoline-3-carboxamide]
< 10 | ++ (between 25% to 100%) | O=C(Nc1ccc(Oc2ccccc2)cc1)c1c[nH]c2ccccc2c1=O [Compound 267, 4-oxo-N-(4-phenoxyphenyl)-1H-quinoline-3-carboxamide]

EC50 [µM] | % Activity | SMILES
< 10 | ++ (between 25% to 100%) | CN(C(=O)c1c[nH]c2ccccc2c1=O)c1cc(O)c(C(C)(C)C)cc1C(C)(C)C [Compound 337, N-(5-hydroxy-2,4-ditert-butyl-phenyl)-N-methyl-4-oxo-1H-quinoline-3-carboxamide]
< 10 | ++ (between 25% to 100%) | CCc1ccc(Cl)c(CC)c1NC(=O)c1c[nH]c2ccccc2c1=O [Compound 91, N-(3-chloro-2,6-diethyl-phenyl)-4-oxo-1H-quinoline-3-carboxamide]
< 10 | ++ (between 25% to 100%) | Cc1cccc(C(C)C)c1NC(=O)c1c[nH]c2ccccc2c1=O [Compound 430, N-(2-isopropyl-6-methyl-phenyl)-4-oxo-1H-quinoline-3-carboxamide]
< 10 | ++ (between 25% to 100%) | COc1ccc(Cl)cc1-c1ccccc1NC(=O)c1c[nH]c2ccccc2c1=O [Compound 202, N-[2-(5-chloro-2-methoxy-phenyl)phenyl]-4-oxo-1H-quinoline-3-carboxamide]
< 10 | ++ (between 25% to 100%) | CC(C)(C)c1cc(C(F)(F)F)c(NC(=O)c2c[nH]c3ccccc3c2=O)cc1O [Compound 266, N-[5-hydroxy-4-tert-butyl-2-(trifluoromethyl)phenyl]-4-oxo-1H-quinoline-3-carboxamide]
25 to 60 | + (<25%) | CCC(=O)Nc1cccc(NC(=O)c2c[nH]c3ccccc3c2=O)c1 [Compound 81, 4-oxo-N-(3-propionylaminophenyl)-1H-quinoline-3-carboxamide]
< 10 | ++ (between 25% to 100%) | CC(C)(C)c1cc(C(C)(C)C)c(NC(=O)c2c[nH]c3cc(O)ccc3c2=O)cc1O [Compound 652, 7-hydroxy-N-(5-hydroxy-2,4-ditert-butyl-phenyl)-4-oxo-1H-quinoline-3-carboxamide]
< 10 | ++ (between 25% to 100%) | CC(C)(C)OC(=O)[C@@H]1CCCN1c1ccc(NC(=O)c2c[nH]c3ccccc3c2=O)c(C(F)(F)F)c1 [Compound 629, (S)-tert-butyl 1-(4-(4-oxo-1,4-dihydroquinoline-3-carboxamido)-3-(trifluoromethyl)phenyl)pyrrolidine-2-carboxylate]
25 to 60 | + (<25%) | O=C(Nc1ccc2ncccc2c1)c1c[nH]c2ccccc2c1=O [Compound 280, 4-oxo-N-(6-quinolyl)-1H-quinoline-3-carboxamide]
10 to 25 | ++ (between 25% to 100%) | CC(=O)N1CCC2(CCN(C(=O)OC(C)(C)C)CC2)c2ccc(NC(=O)c3c[nH]c4ccccc4c3=O)cc21 [Compound 334, 7′-[(4-oxo-1H-quinolin-3-ylcarbonyl)amino]-spiro[piperidine-4,4′(1′H)-1-acetyl-quinoline], 2′,3′-dihydro-carboxylic acid tert-butyl ester]
< 10 | ++ (between 25% to 100%) | CC(C)(C)CC(=O)Nc1ccc(C(C)(C)C)c(NC(=O)c2c[nH]c3ccccc3c2=O)c1 [Compound 196, N-[5-(3,3-dimethylbutanoylamino)-2-tert-butyl-phenyl]-4-oxo-1H-quinoline-3-carboxamide]
< 10 | +++ (>100%) | COc1cccc(-c2ccccc2NC(=O)c2c[nH]c3ccccc3c2=O)c1 [Compound 283, N-[2-(3-methoxyphenyl)phenyl]-4-oxo-1H-quinoline-3-carboxamide]
< 10 | ++ (between 25% to 100%) | CC1(C)CCOc2cc(NC(=O)c3c[nH]c4ccccc4c3=O)ccc21 [Compound 204, N-(4,4-dimethylchroman-7-yl)-4-oxo-1H-quinoline-3-carboxamide]
< 10 | ++ (between 25% to 100%) | O=C(Nc1ccccc1-c1cccc(Cl)c1Cl)c1c[nH]c2ccccc2c1=O [Compound 171, N-[2-(2,3-dichlorophenyl)phenyl]-4-oxo-1H-quinoline-3-carboxamide]
< 10 | ++ (between 25% to 100%) | CC1CCN(c2ccccc2NC(=O)c2c[nH]c3ccccc3c2=O)CC1 [Compound 372, N-[2-(4-methyl-1-piperidyl)phenyl]-4-oxo-1H-quinoline-3-carboxamide]
< 10 | ++ (between 25% to 100%) | N#Cc1ccc(-c2ccccc2NC(=O)c2c[nH]c3ccccc3c2=O)s1 [Compound 93, N-[2-(5-cyano-2-thienyl)phenyl]-4-oxo-1H-quinoline-3-carboxamide]
< 10 | +++ (>100%) | O=C(Nc1ccccc1-c1ccc2c(c1)OCO2)c1c[nH]c2ccccc2c1=O [Compound 135, N-(2-benzo[1,3]dioxol-5-ylphenyl)-4-oxo-1H-quinoline-3-carboxamide]

SMILES | EC50 [µM] | % Activity
N#CCc1ccccc1NC(=O)c1c[nH]c2ccccc2c1=O [Compound 308, N-[2-(cyanomethyl)phenyl]-4-oxo-1H-quinoline-3-carboxamide] | 10 to 25 | ++ (between 25% to 100%)
